Assay results taken from patent publication US11529319B2, “Methods and compositions for treating neurological conditions” (priority 2017, dated 2022).
Entries after “also recorded” stand apart in the source; their conditions may differ.

Key:
[1] = test system: p38 MAPK/MAPKAPK2/TSC2/mTORC1/S6K1 cascade; test: Western blots of eNMDAR-triggered signaling; format: cell-based; settings: compared with Memantine
Source text: This experiment was replicated 4 times with similar results and quantified in FIG. 20C.

Tsc2+/- mice [2] = test: Quantitative confocal immunohistochemistry of synaptophysin (SY38) in hippocampus; format: in vivo, mouse; settings: i.p. loading 92 μmol/kg then 4.6 μmol/kg twice daily, two and a half days
Source text: To determine the effects of […] antagonists on the brain histology of Tsc2^+/- mice, quantitative confocal immunohistochemistry was used to analyze coronal brain slices from 3-month-old wild-type (WT) and Tsc2^+/- mice that had been treated for two and a half days with vehicle, memantine or NitroSynapsin. Tsc2+/- mice on the C57Bl/6J background received via the intraperitoneal route either vehicle or a loading dose of 92 μmol/kg of memantine or NitroSynapsin, followed by 4.6 μmol/kg of drug twice daily for two-and-a-half-days, with the last dose 3 hours prior to the behavioral training session (for a total of five drug injections). This dosing regimen yields an effective concentration of drug at NMDARs in the brain of 1-10 μM.

Mef2c-het mice [3] = test: Immunohistochemistry and stereological cell counting in hippocampus after chronic treatment; format: in vivo, mouse
Source text: (§1) Mef2c heterozygous knockout (Mef2c-het) mice were created by crossing mice carrying the conventional exon 2-deleted allele of Mef2c (Mef2c^Δ2) with their WT littermates. All procedures for maintaining and using these mice were approved by the Institutional Animal Care and Use Committee (IACUC) at the Sanford Burnham Prebys Medical Discovery Institute. In this study, only male mice were used for the behavioral assays to insure uniformity (either with or without drug treatment). Chronic treatment with memantine, NitroSynapsin (both at 4.6 μmol/kg body weight) or vehicle (PBS) was administered via i.p. injection, twice a day for at least 3 months, starting at ˜2.5 weeks of age. This age was chosen because mice are still juveniles and thus treatment could begin in human at an equivalent stage.
Mice were perfused with PBS buffer and then 2% paraformaldehyde in PBS (PFA).
After perfusion, brains were removed and placed into 2% PFA overnight for post-fixation and then sunk in 30% sucrose in PBS prior to freezing. Cryostat sections were cut at a thickness of 15 μm. Sections were soaked in Antigen Unmasking Solution (Vector) and microwaved for 30 s, followed by permeabilization with 0.25% Triton X-100 in PBS for 15 min. Primary antibodies were incubated for 16 h at 4° C. and fluorescence-conjugated secondary antibodies for 2 h at 25° C. Numerous unstained cells in each field served as an internal control for staining specificity. Primary antibodies included: NeuN (mouse, EMD Millipore), activated caspase-3 (rabbit, Cell Signaling), VGLUT1 (guinea pig, SYSY), VGLUT2 (rabbit, SYSY), VGAT (mouse, SYSY), synaptophysin (mouse, Sigma), GFAP (mouse, Sigma), PCNA (mouse, Santa Cruz), DCX (goat, Santa Cruz). TUNEL assay was performed to assess apoptosis using the Roche In Situ Cell Death Detection Kit per vender's instruction. The number of cells positive or percent area occupied by NeuN, activated caspase-3, TUNEL, GFAP, PCNA, or DCX was counted in specific brain regions using an optical dissector, or estimated by quantitative confocal immunohistochemistry or optical density, as described previously.

Tsc2+/- mice [4] = test: Fear conditioning test; format: in vivo, mouse; settings: two-and-a-half-day treatment, last dose 3 hours before training
Source text: To determine the effects of eNMDAR antagonists on the brain histology of Tsc2^+/− mice, quantitative confocal immunohistochemistry was used to analyze coronal brain slices from 3-month-old wild-type (WT) and Tsc2^+/− mice that had been treated for two and a half days with vehicle, memantine or NitroSynapsin. Tsc2+/− mice on the C57Bl/6J background received via the intraperitoneal route either vehicle or a loading dose of 92 μmol/kg of memantine or NitroSynapsin, followed by 4.6 μmol/kg of drug twice daily for two-and-a-half-days, with the last dose 3 hours prior to the behavioral training session (for a total of five drug injections). This dosing regimen yields an effective concentration of drug at NMDARs in the brain of 1-10 μM.
Fear conditioning tests were performed on three-month-old Tsc2^+/+ and Tsc2^+/− mice to explore the effects of eNMDAR antagonists on anxiety, and learning and memory deficits in Tsc2^+/− mice. Vehicle, memantine or NitroSynapsin were administered for two and a half days, with the last dose of drug occurring 3-hours prior to the first training session. […] Freezing time of three-month-old WT and Tsc2^+/− transgenic mice treated with vehicle, memantine or NitroSynapsin in fear-conditioning trials. […] Values are mean+s.e.m. (n=7-12 mice per group). […]

Mef2c-het mice [5] = test: Hole-board exploration test; format: in vivo, mouse; settings: chronic treatment
Source text: as §1
The apparatus consisted of a Plexiglas cage (32×32×30 cm) with 16 holes in a format of 4×4 (each 3 cm in diameter) equally spaced on an elevated floor. The explorative activity including the number of head-dips and the time spent head-dipping were measured for 5 min.

Mef2c-het mice [6] = test: Open field test (locomotor activity); format: in vivo, mouse; settings: chronic treatment, 30-minute test
Source text: as §1
Locomotor activity was measured in polycarbonate cages (42×22×20 cm) placed into frames (25.5×47 cm) mounted with two levels of photocell beams at 2 and 7 cm above the bottom of the cage (San Diego Instruments, San Diego, Calif.). These two sets of beams allowed recording of both horizontal (locomotion) and vertical (rearing) behavior. A thin layer of bedding material was applied to the bottom of the cage. Mice were tested for 30 or 120 min depending on the exact test.

[7] = test system: hippocampal slices of Tsc2+/- mice; test: CA1 LTP in acute hippocampal slices by multielectrode array; format: cell-based, mouse; settings: 1-2 μM, 4-hour treatment; monitored 55-65 min after induction; vs vehicle
Description: Long-term potentiation (LTP), a form of synaptic plasticity elicited in response to excitatory input and thought to represent an electrical correlate of learning and memory in the hippocampus, was examined. Field recordings in the CA1 region of hippocampal slices were used to investigate the effects of Tsc2 mutation on this form of synaptic plasticity. For this purpose, acute hippocampal slices from one-month-old mice were prepared and field recordings in a microelectrode array (MEA) chamber perfused with artificial cerebrospinal fluid (ACSF) were performed. fEPSPs (field excitatory postsynaptic potentials) were recorded in the CA1 region after evoking LTP via stimulation of the Schaffer collaterals (four repetitions of 100 Hz pulses for one second each). The initial slope of the fEPSP was analyzed to assess LTP. However, with a stronger induction protocol as used here, we observed a decrease in LTP, monitored 60 min after induction.

CCC12CC3(N)CC(CC)(C1)CC(O[N+](=O)[O-])(C3)C2 [NitroSynapsin]
eNMDAR-triggered signaling that inactivates TSC2 (p38 MAPK-TSC-Rheb-mTORC1-S6K1 pathway) [1]: correction of activity | eNMDAR-triggered signaling that inactivates TSC2 (p38 MAPK-TSC-Rheb-mTORC1-S6K1 pathway) ([1]; listed as NitroMemantine): to a greater degree than Memantine | synaptophysin (SY38) staining in hippocampus (% area) (Tsc2+/- mice [2]): all improved; also recorded: significantly more staining; also recorded: reversed the synaptic loss; also recorded: raised the synaptic signal to WT levels | PV-immunoreactive synapses (% area) (Mef2c-het mice [3]): significantly increased; also recorded: significantly ameliorated | TUNEL-positive neurons, hippocampal CA3 (Mef2c-het mice [3]): reduced back to normal; also recorded: ameliorated in Het/N mice | VGAT immunoreactivity in hippocampus (Mef2c-het mice [3]): normalized; also recorded: rescue | VGLUT1 immunoreactivity in hippocampus (Mef2c-het mice [3]): unaltered | VGLUT2 immunoreactivity in hippocampus (Mef2c-het mice [3]): normalized; also recorded: rescue | activated caspase-3-positive neurons, hippocampal CA3 (Mef2c-het mice [3]): reduced back to normal; also recorded: ameliorated in Het/N mice | number of GFAP+ cells (astrocytes) in hippocampus (Mef2c-het mice [3]): normalized the number of GFAP+ cells; also recorded: restored to WT levels | ratio of VGLUT1/VGAT (Mef2c-het mice [3]): normalized; also recorded: rescue | ratio of VGLUT2/VGAT (Mef2c-het mice [3]): normalized; also recorded: rescue | total number of NeuN+ cells in hippocampus (Mef2c-het mice [3]; optical dissector): significantly greater than in Het/V mice; also recorded: significantly greater effect of NitroSynapsin over memantine; also recorded: significantly greater than in vehicle (V)-treated mice; also recorded: rescue | context discrimination (freezing time, training vs novel context) (Tsc2+/- mice [4]): all improved; also recorded: normalizing context discrimination; also recorded: improved the ability to discriminate context in Tsc2^+/− mice to normal WT levels; also recorded: normalized context discrimination | head-dips per hole (repetitive behavior) (Mef2c-het mice [5]): corrected the abnormal repetitive behavior | open field center time / center activity (Mef2c-het mice [6]): rescued by chronic treatment with NitroSynapsin; also recorded: rescued by treatment with N | CA1 LTP in Tsc2+/- hippocampal slices [7]: all improved; also recorded: improved LTP; also recorded: able to reverse deficits in synaptic plasticity; also recorded: improvement of LTP
